Among the data in ChEMBL document CHEMBL5678818, “Discovery of potent SOS1 inhibitors that block RAS activation via disruption of the RAS-SOS1 interaction” (Proc Natl Acad Sci U S A, 2019) are Activity values, retold here.

For test [1], the target named is T1, Serine/threonine-protein kinase Nek10 (Homo sapiens) (UniProt Q6ZWH5).
T1 sequence (whole entry): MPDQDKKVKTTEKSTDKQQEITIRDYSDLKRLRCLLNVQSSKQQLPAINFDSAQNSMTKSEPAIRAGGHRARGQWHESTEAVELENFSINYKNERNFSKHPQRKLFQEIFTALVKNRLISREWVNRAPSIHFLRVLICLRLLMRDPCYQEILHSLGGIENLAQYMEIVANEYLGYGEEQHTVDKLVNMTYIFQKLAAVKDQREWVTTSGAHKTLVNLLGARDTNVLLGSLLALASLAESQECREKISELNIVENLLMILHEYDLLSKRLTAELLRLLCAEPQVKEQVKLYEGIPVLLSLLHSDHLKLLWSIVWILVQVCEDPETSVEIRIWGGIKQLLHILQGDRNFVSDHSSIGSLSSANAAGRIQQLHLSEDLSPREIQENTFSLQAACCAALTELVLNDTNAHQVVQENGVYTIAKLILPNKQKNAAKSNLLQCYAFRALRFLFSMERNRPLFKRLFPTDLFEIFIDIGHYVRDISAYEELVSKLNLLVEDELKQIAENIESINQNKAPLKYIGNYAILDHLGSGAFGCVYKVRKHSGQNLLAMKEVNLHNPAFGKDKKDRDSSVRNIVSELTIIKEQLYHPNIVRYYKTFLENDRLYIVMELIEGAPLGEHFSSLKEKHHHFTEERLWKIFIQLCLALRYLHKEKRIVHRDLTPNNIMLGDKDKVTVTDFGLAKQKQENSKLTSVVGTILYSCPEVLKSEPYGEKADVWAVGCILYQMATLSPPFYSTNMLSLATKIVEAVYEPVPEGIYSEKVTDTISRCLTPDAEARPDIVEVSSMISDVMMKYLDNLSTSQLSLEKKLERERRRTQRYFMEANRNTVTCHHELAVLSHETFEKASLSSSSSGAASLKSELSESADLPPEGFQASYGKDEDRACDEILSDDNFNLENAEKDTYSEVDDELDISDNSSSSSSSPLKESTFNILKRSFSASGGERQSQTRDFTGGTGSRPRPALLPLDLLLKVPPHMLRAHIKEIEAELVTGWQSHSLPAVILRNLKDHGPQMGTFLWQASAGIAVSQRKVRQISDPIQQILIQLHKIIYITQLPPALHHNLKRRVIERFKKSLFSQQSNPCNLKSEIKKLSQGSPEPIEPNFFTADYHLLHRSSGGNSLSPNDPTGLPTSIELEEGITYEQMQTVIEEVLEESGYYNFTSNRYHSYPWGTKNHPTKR
In words: Inhibition of NEK10 (unknown origin) assessed as residual activity at 1000 nM by KINOMEscan analysis relative to control.

Test [2] deals with T2, Discoidin domain-containing receptor 2 (Homo sapiens) (UniProt Q16832).
T2 sequence (whole entry): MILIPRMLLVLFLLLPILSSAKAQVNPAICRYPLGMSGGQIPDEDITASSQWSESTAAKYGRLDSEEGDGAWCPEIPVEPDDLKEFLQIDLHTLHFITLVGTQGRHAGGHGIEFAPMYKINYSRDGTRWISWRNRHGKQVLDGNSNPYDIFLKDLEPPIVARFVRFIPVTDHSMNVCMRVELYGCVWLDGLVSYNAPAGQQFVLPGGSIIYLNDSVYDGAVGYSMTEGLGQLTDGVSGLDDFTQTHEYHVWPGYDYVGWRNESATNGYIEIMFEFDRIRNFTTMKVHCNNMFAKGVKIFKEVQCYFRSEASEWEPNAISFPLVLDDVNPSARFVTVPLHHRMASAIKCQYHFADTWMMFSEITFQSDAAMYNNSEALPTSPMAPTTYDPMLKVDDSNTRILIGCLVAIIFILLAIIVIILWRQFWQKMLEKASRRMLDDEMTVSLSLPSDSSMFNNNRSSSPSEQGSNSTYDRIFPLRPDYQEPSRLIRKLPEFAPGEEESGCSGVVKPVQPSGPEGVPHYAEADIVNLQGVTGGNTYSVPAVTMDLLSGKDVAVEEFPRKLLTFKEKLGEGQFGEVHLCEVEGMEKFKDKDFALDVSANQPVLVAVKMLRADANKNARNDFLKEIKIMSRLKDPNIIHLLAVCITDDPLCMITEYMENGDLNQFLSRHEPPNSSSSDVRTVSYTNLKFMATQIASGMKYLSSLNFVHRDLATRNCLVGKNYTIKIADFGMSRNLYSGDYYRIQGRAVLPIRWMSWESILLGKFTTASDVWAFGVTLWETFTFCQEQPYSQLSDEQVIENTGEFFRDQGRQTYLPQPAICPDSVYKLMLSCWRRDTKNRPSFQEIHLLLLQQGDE
Description: Inhibition of DDR2 (unknown origin) assessed as residual activity at 1000 nM by KINOMEscan analysis relative to control.

In test [3] the target is Vascular endothelial growth factor receptor 3 (Homo sapiens) (UniProt P35916). Description: Inhibition of FLT4 (unknown origin) assessed as residual activity at 1000 nM by KINOMEscan analysis relative to control.
Test [4] has as its target Dual specificity protein kinase CLK2 (Homo sapiens) (UniProt P49760). In words: Inhibition of CLK2 (unknown origin) assessed as residual activity at 1000 nM by KINOMEscan analysis relative to control.
Test [5] addresses T3, Dual specificity mitogen-activated protein kinase kinase 4 (Homo sapiens) (UniProt P45985).
T3 sequence (whole entry): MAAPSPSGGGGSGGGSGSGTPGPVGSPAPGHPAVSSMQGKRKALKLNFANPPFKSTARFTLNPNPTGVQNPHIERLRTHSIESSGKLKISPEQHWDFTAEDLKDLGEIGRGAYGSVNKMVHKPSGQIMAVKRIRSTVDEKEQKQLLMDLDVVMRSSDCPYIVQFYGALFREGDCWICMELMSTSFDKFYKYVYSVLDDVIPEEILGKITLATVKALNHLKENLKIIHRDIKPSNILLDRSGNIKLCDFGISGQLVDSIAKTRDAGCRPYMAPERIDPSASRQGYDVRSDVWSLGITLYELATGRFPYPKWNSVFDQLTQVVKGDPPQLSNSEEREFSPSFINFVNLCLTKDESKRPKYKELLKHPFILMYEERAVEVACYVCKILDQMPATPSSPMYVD
Description: Inhibition of MEK4 (unknown origin) assessed as residual activity at 1000 nM by KINOMEscan analysis relative to control.

Test [6] addresses Serine/threonine-protein kinase PAK 3 (Homo sapiens) (UniProt O75914). Description: Inhibition of PAK3 (unknown origin) assessed as residual activity at 1000 nM by KINOMEscan analysis relative to control.

Chain of Serine/threonine-protein kinase PAK 3 (Homo sapiens) (O75914 whole entry, looked up): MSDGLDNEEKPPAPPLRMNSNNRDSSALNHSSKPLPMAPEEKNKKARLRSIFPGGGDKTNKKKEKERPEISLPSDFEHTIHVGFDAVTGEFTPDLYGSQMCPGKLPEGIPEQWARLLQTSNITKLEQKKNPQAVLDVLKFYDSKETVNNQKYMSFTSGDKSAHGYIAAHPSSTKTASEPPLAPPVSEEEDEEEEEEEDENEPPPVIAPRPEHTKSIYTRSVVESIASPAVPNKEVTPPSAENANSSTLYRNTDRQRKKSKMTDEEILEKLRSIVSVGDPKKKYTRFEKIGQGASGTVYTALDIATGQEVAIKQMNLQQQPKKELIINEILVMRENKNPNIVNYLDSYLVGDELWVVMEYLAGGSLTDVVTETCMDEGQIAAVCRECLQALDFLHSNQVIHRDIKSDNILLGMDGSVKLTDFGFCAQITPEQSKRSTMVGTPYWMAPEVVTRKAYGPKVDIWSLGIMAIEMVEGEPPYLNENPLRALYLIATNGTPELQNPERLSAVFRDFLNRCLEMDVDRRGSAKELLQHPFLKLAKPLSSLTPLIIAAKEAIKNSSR
Chain of Vascular endothelial growth factor receptor 3 (Homo sapiens) (P35916 whole entry): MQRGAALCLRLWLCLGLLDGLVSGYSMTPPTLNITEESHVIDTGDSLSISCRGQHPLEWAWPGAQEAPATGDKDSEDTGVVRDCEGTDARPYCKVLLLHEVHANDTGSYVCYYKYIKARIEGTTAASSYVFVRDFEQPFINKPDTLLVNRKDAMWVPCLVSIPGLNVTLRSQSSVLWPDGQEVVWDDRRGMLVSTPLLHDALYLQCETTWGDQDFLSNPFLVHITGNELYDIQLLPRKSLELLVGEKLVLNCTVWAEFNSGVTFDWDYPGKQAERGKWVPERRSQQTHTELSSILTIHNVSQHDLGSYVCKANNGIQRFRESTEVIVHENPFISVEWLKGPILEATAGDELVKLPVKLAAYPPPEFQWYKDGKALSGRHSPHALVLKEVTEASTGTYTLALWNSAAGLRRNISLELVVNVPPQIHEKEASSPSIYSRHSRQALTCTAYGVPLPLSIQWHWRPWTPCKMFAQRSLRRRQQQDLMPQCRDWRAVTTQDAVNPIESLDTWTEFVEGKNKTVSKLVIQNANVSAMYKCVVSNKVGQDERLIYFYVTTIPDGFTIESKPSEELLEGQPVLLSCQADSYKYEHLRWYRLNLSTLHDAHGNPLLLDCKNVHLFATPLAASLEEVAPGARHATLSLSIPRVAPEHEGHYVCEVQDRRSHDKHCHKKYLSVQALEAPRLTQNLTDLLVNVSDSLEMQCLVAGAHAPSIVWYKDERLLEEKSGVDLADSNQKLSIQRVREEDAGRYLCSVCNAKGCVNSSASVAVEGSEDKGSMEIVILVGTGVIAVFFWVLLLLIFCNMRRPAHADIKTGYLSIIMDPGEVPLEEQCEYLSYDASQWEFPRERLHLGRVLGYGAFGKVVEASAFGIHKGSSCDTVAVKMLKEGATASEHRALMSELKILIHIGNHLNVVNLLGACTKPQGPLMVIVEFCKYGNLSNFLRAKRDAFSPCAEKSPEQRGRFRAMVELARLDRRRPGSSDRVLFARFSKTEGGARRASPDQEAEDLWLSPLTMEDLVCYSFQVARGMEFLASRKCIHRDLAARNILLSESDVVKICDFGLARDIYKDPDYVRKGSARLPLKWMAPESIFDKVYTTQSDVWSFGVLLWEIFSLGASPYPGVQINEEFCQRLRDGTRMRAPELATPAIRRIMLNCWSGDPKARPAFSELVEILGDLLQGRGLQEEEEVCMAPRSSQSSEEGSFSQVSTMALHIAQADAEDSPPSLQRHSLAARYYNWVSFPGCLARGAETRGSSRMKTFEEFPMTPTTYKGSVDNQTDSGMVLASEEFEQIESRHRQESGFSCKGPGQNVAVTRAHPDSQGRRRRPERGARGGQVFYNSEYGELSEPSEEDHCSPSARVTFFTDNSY
Chain of Dual specificity protein kinase CLK2 (Homo sapiens) (P49760 whole entry, looked up): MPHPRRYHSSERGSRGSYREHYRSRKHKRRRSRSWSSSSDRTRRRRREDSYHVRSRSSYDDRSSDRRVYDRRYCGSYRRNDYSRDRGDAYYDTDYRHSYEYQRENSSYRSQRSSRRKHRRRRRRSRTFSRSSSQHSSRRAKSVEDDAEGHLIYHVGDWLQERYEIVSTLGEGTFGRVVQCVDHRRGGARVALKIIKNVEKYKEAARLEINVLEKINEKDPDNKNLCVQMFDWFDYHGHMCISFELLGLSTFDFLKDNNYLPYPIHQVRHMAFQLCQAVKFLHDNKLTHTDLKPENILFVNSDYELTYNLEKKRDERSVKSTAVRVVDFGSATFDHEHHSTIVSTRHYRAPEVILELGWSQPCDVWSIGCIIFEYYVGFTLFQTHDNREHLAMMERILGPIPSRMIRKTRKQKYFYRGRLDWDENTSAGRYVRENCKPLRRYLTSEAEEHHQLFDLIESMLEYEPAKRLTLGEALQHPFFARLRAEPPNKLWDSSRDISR

Turning to `COc1cc2ncnc(N[C@H](C)c3cccc4ccccc34)c2cc1OC`, the Activity in test [1] came out at 68%; in test [2], 67%; in test [3], 100%; in test [4], 100%; in test [5] it was 97%; in test [6], 58%.

Regarding `COc1cc2nc(C)nc(N[C@H](C)c3cccc(-c4cn[nH]c4)c3)c2cc1OC`, the Activity in test [1] stood at 90%; in test [2], 97%; in test [3], 90%; in test [4], 78%; in test [5] it was 100%; in test [6], 34%.
